Test results as given in patent publication US20100298141A1, “SUBSTITUTED PYRIDINE N-OXIDE HERBICIDES” (E. I. DU PONT DE NEMOURS AND COMPANY, priority 2007, published 2010).

Experiments:
[1] = system: crabgrass; assay: Test A pre-/postemergence greenhouse test; type: in vivo, Digitaria sanguinalis; conditions: for Crabgrass, Large plant response rating: 0 to 100 scale
How it was run: (§1)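 Two application timings were run side by side in the greenhouse. Before emergence, compound went onto the soil surface of loam–sand pots as a directed spray; after emergence, plants at 2–10 cm and the one- to two-leaf stage were treated. Visual injury versus controls was rated at approximately day ten.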

[2] = system: giant foxtail; assay: Test A pre-/postemergence greenhouse test; type: in vivo, Setaria faberi; conditions: for Foxtail, Giant plant response rating: 0 to 100 scale
How it was run: as §1

[3] = system: morningglory; assay: Test A pre-/postemergence greenhouse test; type: in vivo, Ipomoea spp.; conditions: for Morningglory plant response rating: 0 to 100 scale
How it was run: as §1

[4] = system: wheat; assay: Test A pre-/postemergence greenhouse test; type: in vivo, Triticum aestivum; conditions: for Wheat plant response rating: 0 to 100 scale
How it was run: as §1

[5] = system: downy brome; assay: Test C pre-/postemergence test; type: in vivo, Bromus tectorum
How it was run: (§2)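 Test chemicals were formulated with surfactant in a non-phytotoxic solvent and sprayed both on freshly planted seeds (preemergence) and on 1- to 4-leaf plants of 2–18 cm (postemergence). Flooded-paddy pots received compound directly into 3 cm of standing water, maintained for the test.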

[6] = system: cocklebur; assay: Test C pre-/postemergence test; type: in vivo, Xanthium strumarium
How it was run: as §2

[7] = system: corn; assay: Test C pre-/postemergence test; type: in vivo, Zea mays
How it was run: as §2

[8] = system: woolly cupgrass; assay: Test C pre-/postemergence test; type: in vivo, Eriochloa villosa
How it was run: as §2

[9] = system: giant foxtail; assay: Test C pre-/postemergence test; type: in vivo, Setaria faberii
How it was run: as §2

[10] = system: Goosegrass; assay: Test C pre-/postemergence test; type: in vivo, Eleusin indica
How it was run: as §2

[11] = system: johnsongrass; assay: Test C pre-/postemergence test; type: in vivo, Sorghum halepense
How it was run: as §2

[12] = system: lambsquarters; assay: Test C pre-/postemergence test; type: in vivo, Chenopodium album
How it was run: as §2

[13] = system: morningglory; assay: Test C pre-/postemergence test; type: in vivo, Ipomoea coccinea
How it was run: as §2

[14] = system: yellow nutsedge; assay: Test C pre-/postemergence test; type: in vivo, Cyperus esculentus
How it was run: as §2

[15] = system: common ragweed; assay: Test C pre-/postemergence test; type: in vivo, Ambrosia elation
How it was run: as §2

[16] = system: soybean; assay: Test C pre-/postemergence test; type: in vivo, Glycine max
How it was run: as §2

[17] = system: umbrella sedge; assay: Test C flooded paddy test; type: in vivo, Cyperus difformis; conditions: Flood
How it was run: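 Flooded 3 cm over soil; compound into paddy water; depth kept constant. Greenhouse 13–15 d.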

[18] = Postemergence, 125 g ai/ha, 0 to 100 scale where 0 is no effect and 100 is complete control
[19] = Postemergence, 500 g ai/ha, 0 is no effect, 100 is complete control
[20] = Preemergence, 125 g ai/ha, 0 no effect, 100 complete control
[21] = Preemergence, 500 g ai/ha, 0 no effect, 100 complete control
[22] = 62 g ai/ha, Preemergence, scale 0 to 100
[23] = 125 g ai/ha, preemergence, scale 0 (no effect) to 100 (complete control)
[24] = Preemergence, 31 g ai/ha, scale 0 to 100 (0 no effect, 100 complete control)
[25] = preemergence, 250 g ai/ha, scale 0 (no effect) to 100 (complete control)

CC(C)c1cc[n+]([O-])c([S+]([O-])Cc2c(C(F)(F)F)nn(C)c2OC(F)F)c1 (centres unmarked) [Compound 109]
Plant response rating, Crabgrass, Large [1, 18]: 60 | Crabgrass, Large plant response rating [1, 19]: 90 | Crabgrass, Large plant response rating [1, 20]: 90 | Crabgrass, Large plant response rating [1, 21]: 100 | Plant response rating, Foxtail, Giant [2, 18]: 80 | Foxtail, Giant plant response rating [2, 19]: 90 | Foxtail, Giant plant response rating [2, 20]: 90 | Foxtail, Giant plant response rating [2, 21]: 100 | Plant response rating, Morningglory [3, 18]: 60 | Morningglory plant response rating [3, 19]: 90 | Morningglory plant response rating [3, 20]: 60 | Morningglory plant response rating [3, 21]: 100 | Plant response rating, Wheat [4, 18]: 60 | Wheat plant response rating [4, 19]: 70 | Wheat plant response rating [4, 20]: 60 | Wheat plant response rating [4, 21]: 100 | Bromegrass, Downy plant response rating [5, 22]: 40 | Bromegrass, Downy plant response rating [5, 23]: 95 | Plant response rating, Bromegrass, Downy [5, 24]: 40 | Bromegrass, Downy plant response rating [5, 25]: 100 | Cocklebur plant response rating [6, 22]: 0 | Cocklebur plant response rating [6, 23]: 0 | Plant response rating, Cocklebur [6, 24]: 0 | Cocklebur plant response rating [6, 25]: 60 | Corn plant response rating [7, 22]: 70 | Corn plant response rating [7, 23]: 95 | Plant response rating, Corn [7, 24]: 50 | Corn plant response rating [7, 25]: 98 | Cupgrass, Woolly plant response rating [8, 22]: 95 | Cupgrass, Woolly plant response rating [8, 23]: 98 | Plant response rating, Cupgrass, Woolly [8, 24]: 70 | Cupgrass, Woolly plant response rating [8, 25]: 98 | Foxtail, Giant plant response rating [9, 22]: 100 | Foxtail, Giant plant response rating [9, 23]: 100 | Plant response rating, Foxtail, Giant [9, 24]: 100 | Foxtail, Giant plant response rating [9, 25]: 100 | Goosegrass plant response rating [10, 22]: 100 | Goosegrass plant response rating [10, 23]: 100 | Plant response rating, Goosegrass [10, 24]: 100 | Goosegrass plant response rating [10, 25]: 100 | Johnsongrass plant response rating [11, 22]: 100 | Johnsongrass plant response rating [11, 23]: 100 | Plant response rating, Johnsongrass [11, 24]: 85 | Johnsongrass plant response rating [11, 25]: 100 | Lambsquarters plant response rating [12, 22]: 100 | Lambsquarters plant response rating [12, 23]: 100 | Plant response rating, Lambsquarters [12, 24]: 100 | Lambsquarters plant response rating [12, 25]: 100 | Morningglory plant response rating [13, 22]: 100 | Morningglory plant response rating [13, 23]: 100 | Plant response rating, Morningglory [13, 24]: 80 | Morningglory plant response rating [13, 25]: 100 | Nutsedge, Yellow plant response rating [14, 22]: 80 | Nutsedge, Yellow plant response rating [14, 23]: 98 | Plant response rating, Nutsedge, Yellow [14, 24]: 80 | Nutsedge, Yellow plant response rating [14, 25]: 100 | Ragweed plant response rating [15, 22]: 50 | Ragweed plant response rating [15, 23]: 55 | Plant response rating, Ragweed [15, 24]: 50 | Ragweed plant response rating [15, 25]: 80 | Soybean plant response rating [16, 22]: 50 | Soybean plant response rating [16, 23]: 85 | Plant response rating, Soybean [16, 24]: 45 | Soybean plant response rating [16, 25]: 95 | Plant response rating, Sedge, Umbrella ([17]; 31 g ai/ha, scale 0 to 100 (0 no effect, 100 complete control)): 0 | Plant response rating, Sedge, Umbrella ([17]; 62 g ai/ha, scale 0 to 100 (0 no effect, 100 complete control)): 0 | Plant response rating, Sedge, Umbrella ([17]; 125 g ai/ha, scale 0 to 100, 0 no effect, 100 complete control, 13 to 15 days): 50 | Plant response rating, Sedge, Umbrella ([17]; 250 g ai/ha, scale 0 to 100, 0 no effect, 100 complete control, 13 to 15 days): 75
